Test results: patent US20250092056A1, “URACIL DERIVATIVES HAVING VIRUS REPLICATION INHIBITORY ACTIVITY AND PHARMACEUTICAL COMPOSITION COMPRISING THE SAME” (Shionogi & Co., Ltd., priority 2022, published 2025)
Like-named read-outs stand apart in the source and are kept apart here.

Assays:
[1] = tested on: SARS-CoV-2; test: Cytopathic effect (CPE) suppression effect confirmation test using HEK293T/ACE2-TMPRSS2 cells; assay type: cell-based; conditions: Severe acute respiratory syndrome coronavirus 2, HEK-293T
[2] = target: Recombinant SARS-CoV-2 3CL Protease (Severe acute respiratory syndrome coronavirus 2 (2019-nCoV) (SARS-CoV-2), UniProt P0DTD1); test: biochemical; assay type: biochemical; conditions: 50% SARS-CoV-2 3CL protease inhibitory concentration; read-out: IC50
[3] = 50% SARS-CoV-2 infected cell death inhibitory concentration, HEK293T/ACE2-TMPRSS2 cells, read-out: EC50
[4] = 72 h, HEK293T/ACE2-TMPRSS2 cells, CPE suppression, CellTiter-Glo 2.0 after 3 days culture, read-out: EC50 (50% SARS-CoV-2 infected cell death inhibitory concentration), class
[5] = 72 h, read-out: EC50 (50% SARS-CoV-2 infected cell death inhibitory concentration), HEK293T/ACE2-TMPRSS2 cells, CPE suppression, CellTiter-Glo 2.0 after 3 days culture
[6] = 72 h, read-out: EC50 (50% SARS-CoV-2 infected cell death inhibitory concentration), class, HEK293T/ACE2-TMPRSS2 cells, CPE suppression, CellTiter-Glo 2.0 after 3 days culture

Row | Compound | EC50 [1, 3] | IC50 [2] | EC50 [1, 4] | EC50 [1, 5] | EC50 [1, 6]
1 | N#CCn1c(N2CC3(C2)CC(F)(F)C3)c(-c2ccc(F)c(Cl)c2)c(=O)n(-c2cncc(C#N)c2)c1=O [Compound I-247] | < 100 nM | < 10 nM | – | – | –
2 | Cc1cncc(-n2c(=O)c(Cc3cc(F)c(F)c(F)c3)c(N3CCC(C#N)C3)n(CC#N)c2=O)c1 (racemic) [Compound I-092] | – | 10 to 100 nM | < 100 nM | – | –
3 | Cc1cncc(-n2c(=O)c(-c3ccc(F)c(Cl)c3)c(-c3ccc(N(C)C)cc3)n(CC#N)c2=O)c1 [Compound I-274] | < 100 nM | < 10 nM | – | – | –
4 | Cc1cc(-n2c(=O)c(-c3cc(Cl)cc(C(F)(F)F)c3)c(N3CCC(C(F)(F)F)CC3)n(CC#N)c2=O)cc(=O)[nH]1 [Compound I-200] | – | 10 to 100 nM | < 100 nM | – | –
5 | N#CCn1c(N2CC(C(F)(F)F)C2)c(-c2ccc(F)c(Cl)c2)c(=O)n(-c2cncc(C#N)c2)c1=O [Compound I-310] | < 100 nM | < 10 nM | – | – | –
6 | N#CCn1c(N2CC3(CCOC3)C2)c(-c2cccc(Cl)c2)c(=O)n(-c2cncc(Cl)c2)c1=O [Compound I-182] | – | 0.4 nM | – | 1.7 nM | –
7 | N#CCn1c(N2CC(F)(C3CC3)C2)c(-c2ccc(F)c(Cl)c2)c(=O)n(-c2cncc(F)c2)c1=O [Compound I-300] | < 100 nM | < 10 nM | – | – | –
8 | C[C@@H](C#N)n1c(N2CC3(CCOC3)C2)c(-c2ccc(F)c(Cl)c2)c(=O)n(-c2cncc(Cl)c2)c1=O (single isomer, unassigned) [Compound I-262] | < 100 nM | < 10 nM | – | – | –
9 | N#CCn1c(N2Cc3cn[nH]c3C2)c(Cc2cc(F)c(F)c(F)c2)c(=O)n(-c2cncc(Cl)c2)c1=O [Compound I-064] | – | < 10 nM | – | – | < 100 nM
10 | CCOC1CN(c2c(-c3ccc(F)c(Cl)c3)c(=O)n(-c3cncc(C(F)F)n3)c(=O)n2CC#N)C1 [Compound I-418] | < 100 nM | < 10 nM | – | – | –
11 | N#CCn1c(N2CC(OC(F)F)C2)c(-c2cc(F)c(F)c(C#N)c2)c(=O)n(-c2cncc(Cl)c2)c1=O [Compound I-369] | < 100 nM | < 10 nM | – | – | –
12 | N#CCn1c(N2CCC(F)(F)CC2)c(-c2cc(F)c(F)c(Cl)c2)c(=O)n(-c2cncc(Cl)c2)c1=O [Compound I-327] | < 100 nM | < 10 nM | – | – | –
13 | Cn1c(-n2c(=O)c(Cc3cc(F)c(F)c(F)c3)c(N3Cc4ccccc4C3)n(CC#N)c2=O)cc(=O)n1C [Compound I-157] | – | > 100 nM | – | – | 1000 to 5000 nM
14 | C[C@H](C#N)n1c(N2CC[C@@](O)(C(F)F)C2)c(-c2ccc(F)c(Cl)c2)c(=O)n(-c2cncc(Cl)c2)c1=O (single isomer, unassigned) [Compound I-423] | < 100 nM | < 10 nM | – | – | –
15 | N#CCn1c(N2CC3CNC(=O)C3C2)c(-c2ccc(F)c(Cl)c2)c(=O)n(-c2cncc(Cl)c2)c1=O (racemic) [Compound I-062] | – | < 10 nM | – | – | < 100 nM
16 | N#CCn1c(N2CC(OC(F)(F)F)C2)c(-c2ccc(F)c(Cl)c2)c(=O)n(-c2cncc(C#N)c2)c1=O [Compound I-311] | < 100 nM | < 10 nM | – | – | –
17 | Cc1cnnc(-n2c(=O)c(Cc3cc(F)c(F)c(F)c3)c(N3C[C@H]4C[C@@H](C3)O4)n(CC#N)c2=O)c1 [Compound I-035] | – | > 100 nM | – | – | 100 to 1000 nM
18 | C[C@@H](C#N)n1c(N2CC[C@@](O)(C(F)F)C2)c(-c2ccc(F)c(C(F)F)c2)c(=O)n(-c2cncc(Cl)c2)c1=O (single isomer, unassigned) [Compound I-428] | < 100 nM | < 10 nM | – | – | –
19 | Cc1cncc(-n2c(=O)c(Cc3cc(F)c(F)c(F)c3)c(/C=C/CO)n(CC#N)c2=O)c1 [Compound I-047] | – | > 100 nM | – | – | 100 to 1000 nM
20 | N#CCn1c(N2CC3(CCOC3)C2)c(-c2ccc(F)c(Cl)c2)c(=O)n(-c2cncc(Cl)n2)c1=O [Compound I-191] | – | < 10 nM | – | – | < 100 nM

Row | Compound | EC50 [1, 3] | IC50 [2] | EC50 [1, 4] | EC50 [1, 5] | EC50 [1, 6]
21 | N#CCn1c(N2CCC(F)(F)CC2)c(-c2cc(O)cc(Cl)c2)c(=O)n(-c2cncc(Cl)c2)c1=O [Compound I-331] | < 100 nM | < 10 nM | – | – | –
22 | N#CCn1c(N2CC[C@@H](C(=O)C3CC(F)(F)C3)C2)c(-c2ccc(F)c(Cl)c2)c(=O)n(-c2cncc(Cl)c2)c1=O [Compound I-236] | < 100 nM | < 10 nM | – | – | –
23 | N#CCn1c(N2CC(C(F)(F)F)C2)c(-c2ccc(F)c(Cl)c2)c(=O)n(-c2cnc3cc(Cl)ccn23)c1=O [Compound I-139] | – | 10 to 100 nM | < 100 nM | – | –
24 | N#CCn1c(N2CC3(CCOC3)C2)c(Cc2cc(F)c(F)c(F)c2)c(=O)n(-c2cnc3cnccn23)c1=O [Compound I-127] | – | > 100 nM | – | – | 1000 to 5000 nM
25 | Cc1cncc(N2C(=O)N(CC#N)CC3(CCOc4ccc(Cl)cc43)C2=O)c1 (racemic) [Compound I-088] | – | 71 nM | – | 97.2 nM | –
26 | Cc1cncc(-n2c(=O)c(-c3cccc4ccccc34)c(N3Cc4cn[nH]c4C3)n(CC#N)c2=O)c1 [Compound I-016] | – | < 10 nM | – | – | < 100 nM
27 | Cc1cc(-n2c(=O)c(-c3ccc(F)c(Cl)c3)c(N3CCC(C(F)(F)F)CC3)n(CC#N)c2=O)cc(=O)[nH]1 [Compound I-162] | – | 10 to 100 nM | 100 to 1000 nM | – | –
28 | N#CCn1c(CC2(O)CCC2)c(-c2ccc(F)c(Cl)c2)c(=O)n(-c2cncc(Cl)c2)c1=O [Compound I-407] | < 100 nM | 10 to 100 nM | – | – | –
29 | N#CCn1c(N2CC[C@](O)(c3ccccc3)C2)c(-c2ccc(F)c(Cl)c2)c(=O)n(-c2cncc(Cl)c2)c1=O (single isomer, unassigned) [Compound I-241] | < 100 nM | < 10 nM | – | – | –
30 | N#CCn1c(C2CCC2)c(-c2ccc(F)c(Cl)c2)c(=O)n(-c2cncc(Cl)c2)c1=O [Compound I-395] | < 100 nM | < 10 nM | – | – | –
31 | N#CCn1c(N2CC(C(F)F)C2)c(-c2ccc(F)c(Cl)c2)c(=O)n(-c2cncc(Cl)c2)c1=O [Compound I-250] | – | 0.54 nM | – | 3.31 nM | –
32 | N#CCn1c(N2CC3(CCOCC3)C2)c(-c2ccc(F)c(Cl)c2)c(=O)n(-c2cncc(Cl)c2)c1=O [Compound I-292] | < 100 nM | < 10 nM | – | – | –
33 | CCCNC(=O)c1c(-c2ccc(F)c(Cl)c2)c(=O)n(-c2cncc(Cl)c2)c(=O)n1CC#N [Compound I-405] | 100 to 1000 nM | > 100 nM | – | – | –
34 | CN(C)c1cnnc(-n2c(=O)c(-c3ccc(F)c(Cl)c3)c(N3CC4(C3)CC(F)(F)C4)n(CC#N)c2=O)c1 [Compound I-219] | 100 to 1000 nM | 10 to 100 nM | – | – | –
35 | N#CCn1c(N2CC(F)(C3CC3)C2)c(-c2ccc(F)c(Cl)c2)c(=O)n(-c2cnc3cc(F)ccn23)c1=O [Compound I-151] | – | < 10 nM | – | – | < 100 nM
36 | Cc1cncc(-n2c(=O)c(Cc3cc(F)c(F)c(F)c3)c(-c3ccc(C)c(C)c3)n(C(F)C#N)c2=O)c1 (racemic) [Compound I-048] | – | > 100 nM | – | – | 1000 to 5000 nM
37 | Cc1cncc(-n2c(=O)c(-c3ccc(F)c(Cl)c3)c(-c3cc4ccccc4s3)n(CC#N)c2=O)c1 [Compound I-020] | – | < 10 nM | – | – | < 100 nM
38 | Cc1cncc(-n2c(=O)c(Cc3cc(F)c(F)c(F)c3)c(N3Cc4cn[nH]c4C3)n(CC#N)c2=O)c1 [Compound I-204] | – | < 10 nM | – | – | < 100 nM
39 | Cc1cncc(-n2c(=O)c(-c3ccc(F)c(Cl)c3)c(N3CC4(C3)CC(F)(F)C4)n(CC#N)c2=O)n1 [Compound I-198] | – | < 10 nM | – | – | < 100 nM
40 | N#CCn1c(N2CC3(C2)CC(F)(F)C3)c(-c2ccc(F)c(Cl)c2)c(=O)n(CC#N)c1=O [Compound I-210] | 100 to 1000 nM | > 100 nM | – | – | –
